Measured values from patent US5075287A, “Muramyl peptide derivatives and immunoregulating compositions containing them” (priority 1989, dated 1991).
Where two headings read alike, the source gives them in different places.

Tests used:
[1] = system: influenza HA vaccine (B/Nagasaki/1/87 strain); assay type: in vivo, female CDF1 mice; conditions: Experiment 2, 8000-fold dilution
[2] = system: hepatitis B virus surface antigen (HBs); assay: Hepatitis-vaccine enhancing activity (adjuvant activity): anti-HBs IgG in mouse serum by ELISA; assay type: in vivo, female CDF1 mice; conditions: Experiment 2, 2000-fold dilution
Experimental: A compound of the present invention was dissolved in lipidmicrosphere (1 mg/ml). On the other hand, a solution of hepatitis B virus surface antigen (HBs) in physiological saline was prepared (50 μg/ml). The above solutions in equal amounts were mixed to prepare a test solution. A control solution was prepared by the exclusion of the compound of the present invention from said test solution. A mixture of a suspension of aluminium hydroxide gel in physiological saline (1 mg/ml) and said hepatitis vaccine preparation in equal amounts was prepared as another control solution. The test solution (0.2 ml) was intraperitoneally administered to each mouse in one group consisting of seven female CDF1 mice.
Blood samples were collected from the fundus ocluli vein of each mouse every week after the administration and then centrifuged to obtain serums. Three weeks after the administration, 0.2 ml of the test liquid was intraperitoneally administered again to each mouse for secondary stimulation. Then blood collecting was conducted every week to obtain serums after the application of the secondary stimulation, in the same manner as that described above.
The amount of the IgG antibodies against the hepatitis B virus surface antigens (HBs) in the serums thus obtained was determined with an ELISA method.

[3] = 4 W (after secondary stimulation at 3 weeks)
[4] = 5 W (after secondary stimulation at 3 weeks)

| Structure (SMILES) | Anti HA serum antigen value (average value ± S.D.) ([1]; 1 W) | Anti HA serum antigen value (average value ± S.D.) ([1]; 2 W) | Anti HA serum antigen value (average value ± S.D.) ([1]; 3 W) | Anti HA serum antigen value (average value ± S.D.) [1, 3] | Anti HA serum antigen value (average value ± S.D.) [1, 4] | Anti-HBs IgG antibody level in serum (ELISA absorbance at 415 nm) ([2]; 1 W) | Anti-HBs IgG antibody level in serum (ELISA absorbance at 415 nm) ([2]; 2 W) | Anti-HBs IgG antibody level in serum (ELISA absorbance at 415 nm) ([2]; 3 W) | Anti-HBs IgG antibody level in serum (ELISA absorbance at 415 nm) [2, 3] | Anti-HBs IgG antibody level in serum (ELISA absorbance at 415 nm) [2, 4] |
| --- | --- | --- | --- | --- | --- | --- | --- | --- | --- | --- |
| CCCCCCCCCCCCCCCC(=O)O[C@H](CCCCCCCCCCC)CC(=O)O[C@H]1O[C@H](CO)[C@@H](O)[C@H](O[C@H](C)C(=O)N[C@@H](C)C(=O)N[C@H](CCC(=O)OC)C(N)=O)[C@H]1NC(C)=O [Example 17, N-[2-0-{2-Acetamido-2,3-dideoxy-1-0-((3R)-3-hexadecanoyloxytetradecanoyl)-α-D-glucopyranos-3-yl}-D-lactoyl]-L-alanyl-D-isoglutamine methylester] | 0.010 ± 0.002 O.D 415 nm | 0.122 ± 0.006 O.D 415 nm | 0.191 ± 0.001 O.D 415 nm | 0.611 ± 0.017 O.D 415 nm | 0.696 ± 0.014 O.D 415 nm | 0.001 ± 0.004 O.D 415 nm | 0.026 ± 0.001 O.D 415 nm | 0.051 ± 0.001 O.D 415 nm | 0.642 ± 0.021 O.D 415 nm | 0.615 ± 0.021 O.D 415 nm |
| CCCCCCCCCCCCCCCCCC(=O)OC[C@H]1O[C@H](OC(=O)C[C@@H](CCCCCCCCCCC)OC(=O)CCCCCCCCCCCCCCC)[C@H](NC(C)=O)[C@@H](O[C@H](C)C(=O)N[C@@H](C)C(=O)N[C@H](CCC(=O)OC)C(N)=O)[C@@H]1O [Example 18, N-[2-0-{2-Acetamido-2,3-dideoxy-6-0octadecanoyl-1-0-((3R)-3-hexadecanoyloxytetradecanoyl)-α-D-glucopyranos-3-yl}-D-lactoyl]-L-alanyl-D-isoglutamine methylester] | 0 O.D 415 nm | 0.052 ± 0.004 O.D 415 nm | 0.075 ± 0.001 O.D 415 nm | 0.370 ± 0.005 O.D 415 nm | 0.360 ± 0.001 O.D 415 nm | 0 O.D 415 nm | 0.035 ± 0.007 O.D 415 nm | 0.050 ± 0.004 O.D 415 nm | 0.481 ± 0.006 O.D 415 nm | 0.375 ± 0.008 O.D 415 nm |
| CCCCCCCCCCCCCCCC(=O)O[C@H](CCCCCCCCCCC)CC(=O)S[C@@H]1O[C@H](CO)[C@@H](O)[C@H](O[C@H](C)C(=O)N[C@@H](C)C(=O)N[C@H](CCC(=O)OC)C(N)=O)[C@H]1NC(C)=O [Example 19] | 0 O.D 415 nm | 0.125 ± 0.003 O.D 415 nm | 0.187 ± 0.001 O.D 415 nm | 0.872 ± 0.002 O.D 415 nm | 0.936 ± 0.006 O.D 415 nm | 0 O.D 415 nm | 0.023 ± 0.000 O.D 415 nm | 0.042 ± 0.001 O.D 415 nm | 0.536 ± 0.011 O.D 415 nm | 0.521 ± 0.012 O.D 415 nm |
| CCCCCCCCCCCCCCCCCC(=O)OC[C@H]1O[C@@H](SC(=O)C[C@@H](CCCCCCCCCCC)OC(=O)CCCCCCCCCCCCCCC)[C@H](NC(C)=O)[C@@H](O[C@H](C)C(=O)N[C@@H](C)C(=O)N[C@H](CCC(=O)OC)C(N)=O)[C@@H]1O [Example 20, N-[2-0-{2-Acetamido-2,3-dideoxy-6-0-octadecanoyl-1-S-((3R)-3-hexadecanoyloxytetradecanoyl)-1-thio-β-D-glucopyranos-3-yl}-D-lactoyl]-L-alanYl-D-isoglutamine methylester] | 0.001 ± 0.001 O.D 415 nm | 0.071 ± 0.001 O.D 415 nm | 0.110 ± 0.008 O.D 415 nm | 0.840 ± 0.011 O.D 415 nm | 0.857 ± 0.023 O.D 415 nm | 0.002 ± 0.001 O.D 415 nm | 0.044 ± 0.005 O.D 415 nm | 0.056 ± 0.003 O.D 415 nm | 0.814 ± 0.018 O.D 415 nm | 0.708 ± 0.002 O.D 415 nm |
| CCCCCCCCCCCCCCCCCC(=O)O[C@H](CCCCCCCCCCC)CC(=O)O[C@H]1O[C@H](CO)[C@@H](O)[C@H](O[C@H](C)C(=O)N[C@@H](C)C(=O)N[C@H](CCC(=O)OC)C(N)=O)[C@H]1NC(C)=O [Example 21, N-[2-0-{2-Acetamido-2,3-dideoxy-1-0-((3R)-3-octadecanoyloxytetradecanoyl)-α-D-glucopyranos-3-yl}-D-lactoyl]-L-alanyl-D-isoglutamine methylester] | 0 O.D 415 nm | 0.060 ± 0.001 O.D 415 nm | 0.097 ± 0.002 O.D 415 nm | 0.748 ± 0.003 O.D 415 nm | 0.758 ± 0.012 O.D 415 nm | 0.006 ± 0.004 O.D 415 nm | 0.038 ± 0.000 O.D 415 nm | 0.058 ± 0.007 O.D 415 nm | 0.517 ± 0.006 O.D 415 nm | 0.498 ± 0.011 O.D 415 nm |
| CCCCCCCCCCCCCCCCCC(=O)OC[C@H]1O[C@H](OC(=O)C[C@@H](CCCCCCCCCCC)OC(=O)CCCCCCCCCCCCCCCCC)[C@H](NC(C)=O)[C@@H](O[C@H](C)C(=O)N[C@@H](C)C(=O)N[C@H](CCC(=O)OC)C(N)=O)[C@@H]1O [Example 22] | 0.001 ± 0.004 O.D 415 nm | 0.065 ± 0.001 O.D 415 nm | 0.100 ± 0.003 O.D 415 nm | 0.411 ± 0.009 O.D 415 nm | 0.492 ± 0.002 O.D 415 nm | 0.005 ± 0.004 O.D 415 nm | 0.036 ± 0.007 O.D 415 nm | 0.053 ± 0.001 O.D 415 nm | 0.294 ± 0.006 O.D 415 nm | 0.254 ± 0.002 O.D 415 nm |
| CCCCCCCCCCCCCCCCCC(=O)O[C@H](CCCCCCCCCCC)CC(=O)S[C@@H]1O[C@H](CO)[C@@H](O)[C@H](O[C@H](C)C(=O)N[C@@H](C)C(=O)N[C@H](CCC(=O)OC)C(N)=O)[C@H]1NC(C)=O [Example 23, N-[2-0-{2-Acetamido-2,3-dideoxy-1-S-((3R)-3-octadecanoyloxytetradecanoyl)-1-thio-β-D-glucopyranos-3-yl}-D-lactoyl]-L-alanyl-D-isoglutamine methylester] | 0.008 ± 0.005 O.D 415 nm | 0.096 ± 0.001 O.D 415 nm | 0.183 ± 0.004 O.D 415 nm | 0.949 ± 0.006 O.D 415 nm | 1.030 ± 0.003 O.D 415 nm | 0.004 ± 0.001 O.D 415 nm | 0.051 ± 0.003 O.D 415 nm | 0.092 ± 0.004 O.D 415 nm | 0.639 ± 0.003 O.D 415 nm | 0.626 ± 0.008 O.D 415 nm |
| CCCCCCCCCCCCCCCCCC(=O)OC[C@H]1O[C@@H](SC(=O)C[C@@H](CCCCCCCCCCC)OC(=O)CCCCCCCCCCCCCCCCC)[C@H](NC(C)=O)[C@@H](O[C@H](C)C(=O)N[C@@H](C)C(=O)N[C@H](CCC(=O)O)C(N)=O)[C@@H]1O [Example 24, N-[2-0-{2-Acetamido-2,3-dideoxy-6-0-octadecanoyl-1-S-((3R)-3-octadecanoyloxytetradecanoyl)-1-thio-β-D-glucopyranos-3-yl}-D-lactoyl]-L-alanyl-D-isoglutamine] | 0.006 ± 0.001 O.D 415 nm | 0.085 ± 0.005 O.D 415 nm | 0.113 ± 0.007 O.D 415 nm | 0.771 ± 0.003 O.D 415 nm | 0.791 ± 0.004 O.D 415 nm | 0.007 ± 0.001 O.D 415 nm | 0.034 ± 0.001 O.D 415 nm | 0.050 ± 0.000 O.D 415 nm | 0.579 ± 0.007 O.D 415 nm | 0.513 ± 0.011 O.D 415 nm |
